PubChem BioAssay (NCI)
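Step 1: Grow cells in 96-well plates. Step 2: Expose to compound for 48 hours at 5 concentrations. Step 3: Interpolate endpoints linearly; if unreached, use highest concentration. Definition used: TGI = concentration required for complete inhibition of growth.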

Columns and labels:
Assay in all cases: inhibition of tumour cell growth, NCI panel, 48 h
IGROV1 ovarian = tested on: IGROV1 ovarian
SF-539 CNS = tested on: SF-539 CNS
EKVX NSCLC = tested on: EKVX NSCLC
SN12C renal = tested on: SN12C renal
CCRF-CEM leukemia = tested on: CCRF-CEM leukemia
SNB-19 CNS = tested on: SNB-19 CNS
OVCAR-3 ovarian = tested on: OVCAR-3 ovarian
LOX IMVI melanoma = tested on: LOX IMVI melanoma
SK-MEL-5 melanoma = tested on: SK-MEL-5 melanoma
K-562 leukemia = tested on: K-562 leukemia

| Compound | TGI (IGROV1 ovarian) | TGI (SF-539 CNS) | TGI (EKVX NSCLC) | TGI (SN12C renal) | TGI (CCRF-CEM leukemia) | TGI (SNB-19 CNS) | TGI (OVCAR-3 ovarian) | TGI (LOX IMVI melanoma) | TGI (SK-MEL-5 melanoma) | TGI (K-562 leukemia) |
| --- | --- | --- | --- | --- | --- | --- | --- | --- | --- | --- |
| CC1(C)CN=C(c2ccc3ccccc3c2O)N1 | > 100 µM | > 100 µM | > 100 µM | > 100 µM | > 100 µM | > 100 µM | > 100 µM | > 100 µM | > 100 µM | > 100 µM |
| O/N=C1/CCCCC1NO (stereo unspecified) | > 100 µM | > 100 µM | > 100 µM | > 100 µM | > 100 µM | > 100 µM | > 100 µM | > 100 µM | > 100 µM | > 100 µM |
| O=c1c2cc(Cl)ccc2n2nnc3ccc(NCCNCCO)c1c32 | 6.26 µM | 3.32 µM | 4.44 µM | 2.88 µM | 4.44 µM | 5.07 µM | 4.16 µM | 1.96 µM | 2.86 µM | 10.9 µM |
| CCSc1nn(-c2c3ccccc3nc3ccccc23)c(=S)s1 | > 100 µM | > 100 µM | > 100 µM | > 100 µM | > 100 µM | > 100 µM | > 100 µM | > 100 µM | > 100 µM | > 100 µM |
| CC(C)(CN1CCCCC1)C(=O)CC(SCCS(=O)(=O)O)c1ccc(Cl)c(Cl)c1 (stereo unspecified) | 13.5 µM | 6.23 µM | 18 µM |  | 4.69 µM | 23.1 µM | 6.97 µM |  | 21.1 µM |  |
| O=C(NC(Cc1c[nH]c2ccccc12)C(=O)O)/C(=C/c1ccccc1)NC(=O)c1ccccc1 (stereo unspecified) | > 100 µM | > 100 µM | > 100 µM | > 100 µM | > 100 µM | > 100 µM | > 100 µM | > 100 µM | > 100 µM | > 100 µM |
| Cc1ccc2c(=O)c3c(O)c4c(cc3n(C)c2c1)OC(C)(C)C=C4 | > 10 µM | > 10 µM | > 10 µM | > 10 µM | > 10 µM | > 10 µM | > 10 µM | > 10 µM | > 10 µM | > 10 µM |
| Nc1ncc(Cc2nn3c(COc4ccc(Cl)cc4)nnc3s2)s1 | > 100 µM | > 100 µM | > 100 µM | > 100 µM | > 100 µM | > 100 µM | > 100 µM |  | > 100 µM | > 100 µM |
| C=C1C[C@]23CC[C@@H]4C(CO)(CO)CC(=O)C[C@]4(C)[C@@H]2C(O)C[C@H]1C3 (stereo partly specified) | > 100 µM | > 100 µM | > 100 µM | > 100 µM | > 100 µM | > 100 µM | > 100 µM | > 100 µM |  | > 100 µM |
| Clc1cccc(Cl)c1C1ON=C(c2ccccc2)N1C12CC3CC(CC(C3)C1)C2 (stereo unspecified) | > 100 µM | > 100 µM | > 100 µM | > 100 µM | 56.5 µM | > 100 µM | 74.7 µM | 63.7 µM | 12.1 µM | 44.7 µM |
| NCCCN1CCN(CCCNc2ccc3ncn4c5ccccc5c(=O)c2c34)CC1 | 8.17 µM | 7.19 µM | 9.03 µM | 3.68 µM | > 25 µM | 4.46 µM | > 25 µM | 4.07 µM | 4.38 µM | > 25 µM |
| Cn1cnc([N+](=O)[O-])c1Sc1nncc2[nH]cnc12 | > 100 µM | > 100 µM | > 100 µM | > 100 µM | > 100 µM | > 100 µM | > 100 µM | > 100 µM | > 100 µM | > 100 µM |
| C=C1C(=O)OC2C1CC1OC2C(C)CCC/C(C)=C\CCC1(C)O (stereo unspecified) | 49.5 µM | 48.7 µM | 79.4 µM | 62.5 µM | 22.2 µM | 103 µM | 32.6 µM | 13.8 µM | 12.4 µM | 48.5 µM |
| CC1Oc2c(c(O)cc3oc(=O)cc(-c4ccccc4)c23)C(=O)C1C (stereo unspecified) | > 100 µM | > 100 µM | > 100 µM | > 100 µM | > 100 µM |  | > 100 µM | > 100 µM | > 100 µM | > 100 µM |
| Cc1cccc(/C=N/NC(=S)NC(C)(C)C)n1 | > 100 µM | > 100 µM |  | > 100 µM | > 100 µM | > 100 µM | > 100 µM | > 100 µM | > 100 µM | > 100 µM |
| NC(=S)NS(=O)(=O)c1ccc(Cl)cc1Cl | > 100 µM | > 100 µM | > 100 µM | > 100 µM | > 100 µM | > 100 µM | > 100 µM | > 100 µM | > 100 µM | > 100 µM |
| COc1ccc(C2=C(N)c3ccccc3C2=O)cc1 | > 100 µM | > 100 µM | > 100 µM | > 100 µM | > 100 µM | 64.3 µM | > 100 µM | > 100 µM | > 100 µM |  |
| CC(CN(C)C)C(O)(c1ccccc1)c1ccccc1 (stereo unspecified) | > 100 µM | > 100 µM | > 100 µM | > 100 µM | > 100 µM | > 100 µM | > 100 µM | > 100 µM | > 100 µM | > 100 µM |
| Cc1ccc(N=Nc2cc(=O)[nH]c(=O)[nH]2)cc1C | 26.9 µM | 27.6 µM | 34.7 µM | 18.6 µM | > 100 µM | 35.2 µM | 4.19 µM | 3.36 µM | 30.4 µM | > 100 µM |
| Cc1ccc2c3ccc4c(c3n(C)c2c1)C(=O)C=CC4=O | > 10 µM | > 9.21 µM | > 10 µM | > 10 µM | 0.844 µM | > 10 µM | 8.6 µM | > 10 µM | > 10 µM | 3.75 µM |
| COC(=O)[C@]12CCC(=O)N1[C@H](C(=O)O)Cc1c2[nH]c2ccccc12 | > 100 µM | > 100 µM | > 100 µM | > 100 µM | > 100 µM | > 100 µM | > 100 µM | > 100 µM | > 100 µM | > 100 µM |
| CN(CCc1ccccn1)C(=S)N/N=C/c1ccccn1 | 1.21 µM | 0.365 µM |  | > 36.2 µM | < 0.01 µM | > 100 µM | 25.9 µM | 13.6 µM | 0.902 µM | 0.0493 µM |
